{
  "source": "paper PMC6879718",
  "about": "“Mycobacterial OtsA Structures Unveil Substrate Preference Mechanism and Allosteric Regulation by 2-Oxoglutarate and 2-Phosphoglycerate” (mBio, 2019)",
  "key": {"[1]": {"target": "T1, M. thermoresistibile OtsA R213E (Mycolicibacterium thermoresistibile, UniProt G7CGT2, R213E)", "T1 sequence (G7CGT2 1-486 R213E)": "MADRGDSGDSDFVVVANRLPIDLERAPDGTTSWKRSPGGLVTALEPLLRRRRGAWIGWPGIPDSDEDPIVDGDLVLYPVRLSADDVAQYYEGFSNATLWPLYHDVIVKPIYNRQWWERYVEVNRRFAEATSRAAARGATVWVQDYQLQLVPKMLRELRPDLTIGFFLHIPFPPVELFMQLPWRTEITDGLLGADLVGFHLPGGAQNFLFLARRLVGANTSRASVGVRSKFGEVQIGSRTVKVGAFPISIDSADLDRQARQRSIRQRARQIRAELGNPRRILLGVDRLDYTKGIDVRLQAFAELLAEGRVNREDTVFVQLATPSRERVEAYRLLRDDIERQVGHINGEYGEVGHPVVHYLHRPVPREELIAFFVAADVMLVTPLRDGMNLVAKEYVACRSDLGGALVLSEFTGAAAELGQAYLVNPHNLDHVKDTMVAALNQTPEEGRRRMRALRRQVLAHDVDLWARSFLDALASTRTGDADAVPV", "assay": "Effect of allosteric regulators on OtsA activity (R213E)", "type": "biochemical, Mycobacterium thermoresistibile", "description": "(§1) . All reagents used were obtained from Sigma-Aldrich. The enzymatic reactions (200-μl reaction mixture) were performed at 37°C, and the reaction mixtures contained 50 mM Tris (pH 7.5), 200 mM NaCl, 10 mM MgCl2, 50 mM KCl, 0.3 mM NADH, 2.5 mM phosphoenolpyruvate (PEP), 10 units of pyruvate kinase-lactate dehydrogenase, 0.1 μM enzyme, and various concentrations of G6P and NDP-glucose to determine kinetic parameters.\n(§2) […]. All experiments were performed in triplicate in a PHERAstar plate reader (BMG Labtech), and data were analyzed with Prism 5 (GraphPad Software)."}, "[2]": {"target": "T2, M. thermoresistibile OtsA R384E (Mycolicibacterium thermoresistibile, UniProt G7CGT2, R384E)", "T2 sequence (G7CGT2 1-486 R384E)": "T1 sequence (G7CGT2 1-486 R213E)", "assay": "Effect of allosteric regulators on OtsA activity (R384E)", "type": "biochemical, Mycobacterium thermoresistibile", "description": "as §1, §2"}},
  "data": [
    {"smiles": "O=C(O)C(CO)OP(=O)(O)O", "note": "(centres unmarked) [2PG, 2-phosphoglyceric acid]", "values": [
      {"measurement": "IC50", "setting": "[1]", "value": 12, "unit": "mM"},
      {"measurement": "IC50", "setting": "[2]", "value": "< 100", "unit": "mM"}
    ]}
  ]
}
